Literature values in patent publication US20230364009A1, “Implantable Medical Device for the Delivery of an Antipsychotic” (Celanese EVA Performance Polymers LLC, priority 2022, published 2023).

Columns and labels:
[1] = target: dopamine Type 2 (D2) receptors (Homo sapiens, UniProt P14416)
[2] = target: T1, serotonin 5HT1c receptors (Homo sapiens, UniProt P28335)
T1 sequence (P28335 33-458): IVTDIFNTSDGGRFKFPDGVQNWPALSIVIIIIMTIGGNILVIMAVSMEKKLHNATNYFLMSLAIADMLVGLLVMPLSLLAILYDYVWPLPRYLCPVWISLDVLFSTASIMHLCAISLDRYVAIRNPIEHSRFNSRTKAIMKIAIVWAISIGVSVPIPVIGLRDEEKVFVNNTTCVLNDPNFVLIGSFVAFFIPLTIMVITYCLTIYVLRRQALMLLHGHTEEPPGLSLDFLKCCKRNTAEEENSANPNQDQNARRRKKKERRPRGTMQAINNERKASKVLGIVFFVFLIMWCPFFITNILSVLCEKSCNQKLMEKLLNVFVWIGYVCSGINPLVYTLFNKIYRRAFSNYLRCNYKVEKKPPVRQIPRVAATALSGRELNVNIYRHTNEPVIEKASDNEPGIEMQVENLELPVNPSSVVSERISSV

[3] = target: serotonin 5HT1D receptors (Homo sapiens, UniProt P28221)
Chain of serotonin 5HT1D receptors (P28221 whole entry): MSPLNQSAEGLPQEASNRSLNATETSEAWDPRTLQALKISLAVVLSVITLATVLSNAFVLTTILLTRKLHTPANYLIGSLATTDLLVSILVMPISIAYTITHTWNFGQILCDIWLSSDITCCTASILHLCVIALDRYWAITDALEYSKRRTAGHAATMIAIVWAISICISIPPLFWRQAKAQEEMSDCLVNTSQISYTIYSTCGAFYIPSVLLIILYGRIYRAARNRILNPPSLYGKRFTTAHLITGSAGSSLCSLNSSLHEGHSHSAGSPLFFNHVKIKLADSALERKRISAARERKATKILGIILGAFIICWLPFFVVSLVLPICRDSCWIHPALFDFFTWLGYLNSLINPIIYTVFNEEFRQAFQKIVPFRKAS

[4] = target: T2, serotonin 5HT1A receptors (Homo sapiens, UniProt P08908)
T2 sequence (P08908 1-422): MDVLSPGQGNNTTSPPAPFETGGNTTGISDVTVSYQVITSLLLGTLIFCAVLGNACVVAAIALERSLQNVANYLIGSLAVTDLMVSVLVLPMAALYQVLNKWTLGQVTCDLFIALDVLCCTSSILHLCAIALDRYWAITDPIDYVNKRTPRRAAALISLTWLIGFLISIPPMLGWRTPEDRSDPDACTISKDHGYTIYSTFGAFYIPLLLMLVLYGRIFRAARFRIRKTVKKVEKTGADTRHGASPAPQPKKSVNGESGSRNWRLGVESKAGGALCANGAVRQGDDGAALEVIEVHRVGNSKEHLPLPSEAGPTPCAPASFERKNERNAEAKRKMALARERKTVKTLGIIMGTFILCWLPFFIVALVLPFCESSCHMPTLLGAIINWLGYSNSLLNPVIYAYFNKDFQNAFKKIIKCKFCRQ

dopamine D1 = dopamine D1 (Homo sapiens, UniProt P21728)
Chain of dopamine D1 (P21728 whole entry): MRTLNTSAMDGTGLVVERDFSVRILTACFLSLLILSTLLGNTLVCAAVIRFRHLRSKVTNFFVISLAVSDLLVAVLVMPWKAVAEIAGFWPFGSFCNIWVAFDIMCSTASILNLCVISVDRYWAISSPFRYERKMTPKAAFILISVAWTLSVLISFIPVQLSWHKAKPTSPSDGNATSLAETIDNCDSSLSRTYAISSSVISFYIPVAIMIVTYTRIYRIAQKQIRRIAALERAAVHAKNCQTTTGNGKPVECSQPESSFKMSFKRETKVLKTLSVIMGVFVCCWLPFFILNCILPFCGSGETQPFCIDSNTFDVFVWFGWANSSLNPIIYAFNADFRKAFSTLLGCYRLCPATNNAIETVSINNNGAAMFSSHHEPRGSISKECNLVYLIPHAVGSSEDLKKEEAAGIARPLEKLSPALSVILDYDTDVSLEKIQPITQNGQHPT

[5] = system: haloperidol-sensitive sigma site
β1 adrenergic receptors = β1 adrenergic receptors (Homo sapiens, UniProt P08588)
Chain of β1 adrenergic receptors (P08588 whole entry): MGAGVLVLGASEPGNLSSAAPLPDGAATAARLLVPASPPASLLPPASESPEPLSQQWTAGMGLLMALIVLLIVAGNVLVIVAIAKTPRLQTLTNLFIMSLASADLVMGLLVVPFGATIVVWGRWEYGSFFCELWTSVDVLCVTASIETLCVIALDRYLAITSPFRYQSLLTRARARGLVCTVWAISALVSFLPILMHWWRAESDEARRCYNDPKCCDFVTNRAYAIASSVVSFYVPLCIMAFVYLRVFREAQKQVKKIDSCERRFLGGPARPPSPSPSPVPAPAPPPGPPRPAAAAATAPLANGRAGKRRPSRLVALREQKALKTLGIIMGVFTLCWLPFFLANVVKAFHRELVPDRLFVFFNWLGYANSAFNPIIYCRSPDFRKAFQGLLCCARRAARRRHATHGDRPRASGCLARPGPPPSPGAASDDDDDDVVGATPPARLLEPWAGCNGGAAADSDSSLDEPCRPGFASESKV

β2 adrenergic receptors = β2 adrenergic receptors (Homo sapiens, UniProt P07550)
Chain of β2 adrenergic receptors (P07550 whole entry): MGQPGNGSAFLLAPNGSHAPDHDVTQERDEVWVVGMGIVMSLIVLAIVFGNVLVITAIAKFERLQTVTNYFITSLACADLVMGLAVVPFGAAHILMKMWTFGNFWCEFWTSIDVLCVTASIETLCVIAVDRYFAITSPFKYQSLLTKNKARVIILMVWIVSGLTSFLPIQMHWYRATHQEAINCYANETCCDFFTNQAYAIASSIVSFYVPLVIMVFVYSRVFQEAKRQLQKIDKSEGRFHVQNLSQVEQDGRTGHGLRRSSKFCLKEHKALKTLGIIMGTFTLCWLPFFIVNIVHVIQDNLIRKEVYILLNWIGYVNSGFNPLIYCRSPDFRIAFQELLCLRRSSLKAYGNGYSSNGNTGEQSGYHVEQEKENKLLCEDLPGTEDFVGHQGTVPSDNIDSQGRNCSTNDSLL

Chain of dopamine Type 2 (D2) receptors (P14416 whole entry): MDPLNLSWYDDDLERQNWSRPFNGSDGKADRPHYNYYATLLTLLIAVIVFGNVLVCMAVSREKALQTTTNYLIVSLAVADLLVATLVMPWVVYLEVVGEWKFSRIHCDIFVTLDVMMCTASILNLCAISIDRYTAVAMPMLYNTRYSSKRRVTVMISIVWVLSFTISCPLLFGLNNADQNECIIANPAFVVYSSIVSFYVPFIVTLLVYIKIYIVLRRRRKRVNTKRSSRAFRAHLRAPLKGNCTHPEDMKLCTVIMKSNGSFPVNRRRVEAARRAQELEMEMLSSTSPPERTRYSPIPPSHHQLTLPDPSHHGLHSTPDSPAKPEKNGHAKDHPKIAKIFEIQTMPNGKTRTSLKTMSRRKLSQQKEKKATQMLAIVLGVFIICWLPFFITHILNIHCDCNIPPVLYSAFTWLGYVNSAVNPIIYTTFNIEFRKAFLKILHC

SMILES: Cc1nc2n(c(=O)c1CCN1CCC(c3noc4cc(F)ccc34)CC1)CCCC2 [Risperidone, risperidone]
- affinity [1]: high affinity
- affinity (α1 adrenergic receptors): high affinity
- affinity (α2 adrenergic receptors): high affinity
- affinity [2]: low to moderate affinity
- affinity [3]: low to moderate affinity
- affinity [4]: low to moderate affinity
- affinity (dopamine D1): weak affinity
- affinity [5]: weak affinity
- affinity (β1 adrenergic receptors): no affinity
- affinity (β2 adrenergic receptors): no affinity
